Experimental data published in patent US7494987B2, “Agent for treating respiratory diseases containing 4-hydroxypiperidine derivative as active ingredient” (priority 2002, dated 2009).

What was measured:
[1] = system: Wistar Hannover female rats; assay: Toxicological study, oral dose in rats; assay type: in vivo; conditions: 40 mg/kg, 6-week-old rats
Method: The compound of Example 36 was orally given to 6-week-old Wistar Hannover female rats at 40 mg/kg.

[2] = system: male rhesus monkeys; assay: Toxicological study, 14-day repeated oral dose in rhesus monkeys; assay type: in vivo
Method: The compound of Example 36 or Example 26 was orally given to 3-year-old male rhesus monkeys at 20 mg/kg/day or 40 mg/kg/day, respectively, once daily for 14 days.

[3] = Pharmacokinetics, time-course of plasma concentration after single oral treatment; assay type: in vivo, rhesus monkeys; conditions: for bioavailability: 3- or 4-year-old male rhesus monkeys; for area under the plasma concentration-time curve (AUC), dependence on dose / maximum plasma concentration (Cmax), dependence on dose / relationship between the dose and the plasma concentration: rhesus monkeys
From the text: The compound of Example 36 or Example 26 was studied about time-course of plasma concentration after single oral treatment to 3- or 4-year-old male rhesus monkeys. […] The relationship between the dose and the plasma concentration was linear. […] Therefore, it can be considered that these compounds are unlikely to be metabolized by first pass effect.

[4] = system: liver microsomes and hepatocytes of monkeys; assay: Metabolic stability in liver microsomes and hepatocytes, monkeys; assay type: in vitro ADME
[5] = system: liver microsomes and hepatocytes of humans; assay: Metabolic stability in liver microsomes and hepatocytes, humans; assay type: in vitro ADME
[6] = system: male rhesus monkeys; assay: Holter ECG test in rhesus monkeys; assay type: in vivo; conditions: oral, 4-year-old male rhesus monkeys
Method: In Holter ECG test, the compound of Example 36 or Example 26 was orally given to 4-year-old male rhesus monkeys at 40 mg/kg and 80 mg/kg, respectively.

[7] = system: liver microsomes and hepatocytes of rats; assay: Metabolic stability in liver microsomes and hepatocytes, rats; assay type: in vitro ADME
[8] = system: liver microsomes and hepatocytes of dogs; assay: Metabolic stability in liver microsomes and hepatocytes, dogs; assay type: in vitro ADME
[9] = system: human drug-metabolizing enzymes; assay: Inhibitory effect on human drug-metabolizing enzymes; assay type: in vitro ADME
[10] = system: Citric Acid-Induced Cough Reflex in Guinea Pigs; assay: Inhibitory effect on citric acid-induced cough reflex in guinea pigs (Experimental Example 1-1, plethysmograph); assay type: in vivo; conditions: oral, 30 mg/kg, cough measured 1 hr after treatment
Method: Guinea pigs were fasted overnight. They were fixed to a plethysmograph, and then the change of inner pressure in the plethysmograph (body side) was recorded on an ink-recording paper (Nihon Kohden Corporation; WI-642G) via the differential pressure transducer (Nihon Kohden Corporation; TP-602T) and the respiration amplifier (Nihon Kohden Corporation; AR-601G). Using a nebulizer (OMRON Corporation; NE-U12), 20 W/V % citric acid solution was sprayed into the plethysmograph (head side) for 2 min (about 1 mL/min). The number of cough response for 15 min after the spray was measured.
(§1) The cough response was measured 3 hrs before and 1 hr after oral treatment. The test compound was not administered to the guinea pigs showing 5 coughs response or less before the treatment. The ratio of cough response between before and after the treatment (Post/Pre×100) was calculated, and the percent inhibition of the test compound on cough reflex induced by citric acid was determined according to the following formula: [(CRRcontrol−CRRtest)/(CRRcontrol)]×100 (%) • CRRcontrol: Ratio (%) of cough response in the control group • CRRtest: Ratio (%) of cough response in the compound-treated group

[11] = system: Wistar Hannover female rats; assay: Toxicological study, 14-day repeated oral dose in rats; assay type: in vivo; conditions: 400 mg/kg/day once daily for 14 days
Method: The compound of Example 26 was orally given to 6-week-old Wistar Hannover female rats at 400 mg/kg/day once daily for 14 days.

[12] = system: Citric Acid-Induced Cough Reflex in Guinea Pigs; assay: Inhibitory action on citric acid-induced cough reflex in guinea pigs (Experimental Example 1-2, nasal inhalation-exposure apparatus); assay type: in vivo; conditions: oral, 30 mg/kg, cough measured 1 hr after treatment
Method: Guinea pigs were fasted overnight. They were fixed to an nasal inhalation-exposure apparatus for small animals (M.I.P.S. Co., Ltd.), and then 20 W/V % citric acid solution was sprayed into the plethysmograph for 2 min (about 1 mL/min) using a nebulizer (M.I.P.S. Co., Ltd.). The number of cough response for 15 min after the spray was measured.
as §1, with “5 cough responses” for “5 coughs response”, “compound-treated group.” for “compound-treated group”

[13] = 20 mg/kg/day once daily for 14 days
[14] = 40 mg/kg/day once daily for 14 days

Compound	bioavailability [3]	area under the plasma concentration-time curve (AUC), dependence on dose [3]	maximum plasma concentration (Cmax), dependence on dose [3]	relationship between the dose and the plasma concentration [3]	metabolic stability in liver microsomes and hepatocytes [4]	metabolic stability in liver microsomes and hepatocytes [5]	metabolic stability in liver microsomes and hepatocytes [7]	metabolic stability in liver microsomes and hepatocytes [8]	inhibitory effect on human drug-metabolizing enzymes [9]	also measured
Cl.N#Cc1ccc(CCN2CCC(O)(COc3ccc(C(=O)O)cc3)CC2)cc1 [Example 36, 4-{1-[2-(4-cyanophenyl)ethyl]-4-hydroxypiperidin-4-ylmethoxy}benzoic acid monohydrochloride]	high	increased almost in proportion to the doses	increased almost in proportion to the doses	linear	metabolically stable	metabolically stable	metabolically stable	metabolically stable	almost no inhibitory effect	abnormality in general behaviors [1]: no abnormality; survival during the examination period [1]: survived; abnormality in weight gains and general behaviors [2, 13]: no abnormality; findings in hematological and biochemical examinations, organ weights and histopathological tests [2, 13]: No apparent toxicological findings; survival until 24 hours after the final treatment [2, 13]: survived; effect on electrocardiogram ([6]; 40 mg/kg): no effect
CN(CC1(O)CCN(CCc2ccc(C#N)cc2)CC1)c1ccc(C(=O)O)cc1.Cl [Example 26, 4-({1-[2-(4-cyanophenyl)ethyl]-4-hydroxypiperidin-4-ylmethyl}methylamino)benzoic acid monohydrochloride]	high	increased almost in proportion to the doses	increased almost in proportion to the doses	linear	metabolically stable	metabolically stable	metabolically stable	metabolically stable	almost no inhibitory effect	abnormality in weight gains and general behaviors [2, 14]: no abnormality; findings in hematological and biochemical examinations, organ weights and histopathological tests [2, 14]: No apparent toxicological findings; survival until 24 hours after the final treatment [2, 14]: survived; Percent inhibition on cough reflex [10]: 59%; effect on electrocardiogram ([6]; 80 mg/kg): no effect; abnormality in general behaviors, weight gains, and food consumptions [11]: no abnormality; findings in hematological and biochemical examinations, organ weights and histopathological tests [11]: No abnormal findings; survival until 24 hours after the final treatment [11]: survived
CN(CC1(O)CCN(CCc2ccc(C(F)(F)F)cc2)CC1)c1ccc(C(=O)O)cc1.Cl [Example 35, 4-({4-hydroxy-1-[2-(4-trifluoromethylphenyl)ethyl]piperidin-4-ylmethyl}methylamino)benzoic acid monohydrochloride]										melting point: 235.1 to 246.9 °C; Percent inhibition on cough reflex [12]: 43%
